Test results from the supplement of paper PMC8612539.
Converted amounts (≈) assume the structure as drawn.

System: Pasteurella multocida
Experiment: minimum inhibitory concentration (MIC)
Procedure: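 Broth microdilution MIC (Sensititre BOPO7F bovine plate, CLSI methods) of 19 antimicrobials against field isolates of P. multocida, M. haemolytica, H. somni (deep nasopharyngeal swabs) and E. coli, Enterococcus spp. (rectal swabs) from weaned dairy heifers. Incubation 16-24 h at 35 C. MIC is the lowest concentration preventing visible growth. Values with <= or > lie at the tested range limits. Trimethoprim-sulfamethoxazole is given as the trimethoprim component of a 1:19 mixture.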

CC[C@H]1OC(=O)C[C@@H](O)[C@H](C)[C@@H](O[C@@H]2O[C@H](C)[C@@H](O[C@H]3C[C@@](C)(O)[C@@H](O)[C@H](C)O3)[C@H](N(C)C)[C@H]2O)[C@@H](CC=O)C[C@@H](C)C(=O)/C=C/C(C)=C/[C@@H]1CO[C@@H]1O[C@H](C)[C@@H](O)[C@@H](OC)[C@H]1OC [Tylosin]
Conditions	minimum inhibitory concentration [µg/mL]
isolate (source animal id): 10	> 32
isolate (source animal id): 11	> 32
isolate (source animal id): 12	> 32
isolate (source animal id): 19	> 32
isolate (source animal id): 23	> 32
isolate (source animal id): 26	> 32
isolate (source animal id): 98	> 32
isolate (source animal id): 104	> 32
isolate (source animal id): 115	> 32
isolate (source animal id): 117	> 32
isolate (source animal id): 118	> 32
isolate (source animal id): 121	> 32
isolate (source animal id): 124	> 32
isolate (source animal id): 125	> 32
isolate (source animal id): 128	> 32
isolate (source animal id): 131	> 32
isolate (source animal id): 135	> 32
isolate (source animal id): 136	> 32
isolate (source animal id): 140	> 32
isolate (source animal id): 144	> 32
isolate (source animal id): 146	> 32
isolate (source animal id): 150	> 32
isolate (source animal id): 151	> 32
isolate (source animal id): 153	> 32
isolate (source animal id): 155	> 32
isolate (source animal id): 157	> 32
isolate (source animal id): 160	> 32
isolate (source animal id): 164	> 32
isolate (source animal id): 165	> 32
isolate (source animal id): 167	> 32
isolate (source animal id): 168	> 32
isolate (source animal id): 169	> 32
isolate (source animal id): 170	> 32
isolate (source animal id): 171	> 32
isolate (source animal id): 172	> 32
isolate (source animal id): 173	> 32
isolate (source animal id): 174	> 32
isolate (source animal id): 175	> 32
isolate (source animal id): 176	> 32
isolate (source animal id): 177	> 32
isolate (source animal id): 178	> 32
isolate (source animal id): 179	32 (≈ 34.9 µM)
isolate (source animal id): 182	> 32
isolate (source animal id): 192	> 32
isolate (source animal id): 193	32 (≈ 34.9 µM)
isolate (source animal id): 195	32 (≈ 34.9 µM)
isolate (source animal id): 196	> 32
isolate (source animal id): 197	> 32
isolate (source animal id): 198	> 32
isolate (source animal id): 199	> 32
isolate (source animal id): 200	> 32
isolate (source animal id): 201	> 32
isolate (source animal id): 203	32 (≈ 34.9 µM)
isolate (source animal id): 204	> 32
isolate (source animal id): 205	> 32
isolate (source animal id): 206	> 32
isolate (source animal id): 207	32 (≈ 34.9 µM)
isolate (source animal id): 208	32 (≈ 34.9 µM)
isolate (source animal id): 209	32 (≈ 34.9 µM)
isolate (source animal id): 210	> 32
isolate (source animal id): 213	32 (≈ 34.9 µM)
isolate (source animal id): 216	> 32
isolate (source animal id): 223	> 32
isolate (source animal id): 227	32 (≈ 34.9 µM)
isolate (source animal id): 229	> 32
isolate (source animal id): 233	> 32
isolate (source animal id): 234	> 32
isolate (source animal id): 237	> 32
isolate (source animal id): 241	> 32
isolate (source animal id): 245	> 32
isolate (source animal id): 247	> 32
isolate (source animal id): 250	> 32
isolate (source animal id): 254	> 32
isolate (source animal id): 255	> 32
isolate (source animal id): 258	32 (≈ 34.9 µM)
isolate (source animal id): 261	> 32
isolate (source animal id): 262	> 32
isolate (source animal id): 269	> 32
isolate (source animal id): 270	> 32
isolate (source animal id): 274	> 32
isolate (source animal id): 275	> 32
isolate (source animal id): 276	> 32
isolate (source animal id): 277	> 32
isolate (source animal id): 278	> 32
isolate (source animal id): 279	> 32
isolate (source animal id): 280	> 32
isolate (source animal id): 284	> 32
isolate (source animal id): 285	> 32
isolate (source animal id): 287	> 32
isolate (source animal id): 290	> 32
isolate (source animal id): 294	> 32
isolate (source animal id): 295	> 32
isolate (source animal id): 296	> 32
isolate (source animal id): 307	> 32
isolate (source animal id): 310	> 32
isolate (source animal id): 311	> 32
isolate (source animal id): 312	> 32
isolate (source animal id): 313	> 32
isolate (source animal id): 315	> 32
isolate (source animal id): 316	> 32

COc1cc(NS(=O)(=O)c2ccc(N)cc2)nc(OC)n1 [sulfadimethoxine]
Conditions	minimum inhibitory concentration [µg/mL]
isolate (source animal id): 10	> 256
isolate (source animal id): 11	> 256
isolate (source animal id): 12	> 256
isolate (source animal id): 19	> 256
isolate (source animal id): 23	> 256
isolate (source animal id): 26	> 256
isolate (source animal id): 98	> 256
isolate (source animal id): 104	> 256
isolate (source animal id): 115	> 256
isolate (source animal id): 117	> 256
isolate (source animal id): 118	> 256
isolate (source animal id): 121	> 256
isolate (source animal id): 124	> 256
isolate (source animal id): 125	> 256
isolate (source animal id): 128	> 256
isolate (source animal id): 131	> 256
isolate (source animal id): 135	> 256
isolate (source animal id): 136	> 256
isolate (source animal id): 140	> 256
isolate (source animal id): 144	> 256
isolate (source animal id): 146	> 256
isolate (source animal id): 150	> 256
isolate (source animal id): 151	> 256
isolate (source animal id): 153	> 256
isolate (source animal id): 155	> 256
isolate (source animal id): 157	> 256
isolate (source animal id): 160	> 256
isolate (source animal id): 164	> 256
isolate (source animal id): 165	> 256
isolate (source animal id): 167	> 256
isolate (source animal id): 168	> 256
isolate (source animal id): 169	> 256
isolate (source animal id): 170	> 256
isolate (source animal id): 171	> 256
isolate (source animal id): 172	> 256
isolate (source animal id): 173	> 256
isolate (source animal id): 174	> 256
isolate (source animal id): 175	> 256
isolate (source animal id): 176	> 256
isolate (source animal id): 177	> 256
isolate (source animal id): 178	> 256
isolate (source animal id): 179	> 256
isolate (source animal id): 182	> 256
isolate (source animal id): 192	> 256
isolate (source animal id): 193	> 256
isolate (source animal id): 195	> 256
isolate (source animal id): 196	> 256
isolate (source animal id): 197	> 256
isolate (source animal id): 198	> 256
isolate (source animal id): 199	> 256
isolate (source animal id): 200	> 256
isolate (source animal id): 201	> 256
isolate (source animal id): 203	> 256
isolate (source animal id): 204	> 256
isolate (source animal id): 205	> 256
isolate (source animal id): 206	> 256
isolate (source animal id): 207	> 256
isolate (source animal id): 208	> 256
isolate (source animal id): 209	> 256
isolate (source animal id): 210	> 256
isolate (source animal id): 213	> 256
isolate (source animal id): 216	> 256
isolate (source animal id): 223	> 256
isolate (source animal id): 227	> 256
isolate (source animal id): 229	> 256
isolate (source animal id): 233	> 256
isolate (source animal id): 234	> 256
isolate (source animal id): 237	> 256
isolate (source animal id): 241	> 256
isolate (source animal id): 245	> 256
isolate (source animal id): 247	> 256
isolate (source animal id): 250	> 256
isolate (source animal id): 254	> 256
isolate (source animal id): 255	> 256
isolate (source animal id): 258	> 256
isolate (source animal id): 261	> 256
isolate (source animal id): 262	> 256
isolate (source animal id): 269	> 256
isolate (source animal id): 270	> 256
isolate (source animal id): 274	> 256
isolate (source animal id): 275	> 256
isolate (source animal id): 276	> 256
isolate (source animal id): 277	> 256
isolate (source animal id): 278	> 256
isolate (source animal id): 279	> 256
isolate (source animal id): 280	> 256
isolate (source animal id): 284	> 256
isolate (source animal id): 285	> 256
isolate (source animal id): 287	> 256
isolate (source animal id): 290	> 256
isolate (source animal id): 294	> 256
isolate (source animal id): 295	> 256
isolate (source animal id): 296	> 256
isolate (source animal id): 307	> 256
isolate (source animal id): 310	> 256
isolate (source animal id): 311	> 256
isolate (source animal id): 312	> 256
isolate (source animal id): 313	> 256
isolate (source animal id): 315	> 256
isolate (source animal id): 316	> 256
